Data reported in ChEMBL document CHEMBL1140657, “SAR of a novel 'Anthranilamide Like' series of VEGFR-2, multi protein kinase inhibitors for the treatment of cancer” (Bioorg Med Chem Lett, 2007).
Values joined by “and” are separate entries in the source; they are usually repeats but may differ in a detail not shown here. Equal values may be shown once.

Tests used:
[1] = molecular target: Serine/threonine-protein kinase B-raf (Homo sapiens, UniProt P15056); test: Inhibition of b-Raf
[2] = molecular target: Mast/stem cell growth factor receptor Kit (Homo sapiens, UniProt P10721); test: Inhibition of human recombinant cKit by FRET assay
[3] = molecular target: Vascular endothelial growth factor receptor 2 (Homo sapiens, UniProt P35968); test: Inhibition of VEGFR2
NCI-H460 = test: Inhibition of tumor growth in human NCI-H460 NSCLC cells xenografted in athymic mouse at 50 mg/kg, po once daily after 9 days; format: functional; conditions: NCI-H460, 216 h
[4] = Cmax in ICR mouse at 25 mg/kg; format: ADME, organism-based; parameters: dose 25 mg/kg; conditions: in vivo
MDA-MB-231 = test: Inhibition of tumor growth in human MDA-MB-231 cells xenografted in athymic mouse at 50 mg/kg, po once daily after 9 days; format: functional; conditions: MDA-MB-231, 216 h
[5] = Volume of distribution at steady state in iv dosed ICR mouse; format: ADME, organism-based; conditions: in vivo, read-out: Vdss
COLO 205 = test: Inhibition of tumor growth in human Colo205 cells xenografted in athymic mouse at 50 mg/kg, po once daily after 9 days; format: functional; conditions: COLO 205, 216 h
[6] = AUC (1 to 5 hrs) in ICR mouse; format: ADME, organism-based; parameters: time 1-5 hr; conditions: plasma
[7] = AUC in ICR mouse at 25 mg/kg, po; format: ADME, organism-based; parameters: dose 25 mg/kg, route oral; conditions: plasma
[8] = AUC (0 to 5 hrs) in ICR mouse at 25 mg/kg, po; format: ADME, organism-based; parameters: time < 4 hr, dose 25 mg/kg, route oral; conditions: plasma
[9] = Cmax in ICR mouse at 15 mg/kg; format: ADME, organism-based; parameters: dose 15 mg/kg; conditions: in vivo

Vascular endothelial growth factor receptor 2, sequence (P35968 whole entry): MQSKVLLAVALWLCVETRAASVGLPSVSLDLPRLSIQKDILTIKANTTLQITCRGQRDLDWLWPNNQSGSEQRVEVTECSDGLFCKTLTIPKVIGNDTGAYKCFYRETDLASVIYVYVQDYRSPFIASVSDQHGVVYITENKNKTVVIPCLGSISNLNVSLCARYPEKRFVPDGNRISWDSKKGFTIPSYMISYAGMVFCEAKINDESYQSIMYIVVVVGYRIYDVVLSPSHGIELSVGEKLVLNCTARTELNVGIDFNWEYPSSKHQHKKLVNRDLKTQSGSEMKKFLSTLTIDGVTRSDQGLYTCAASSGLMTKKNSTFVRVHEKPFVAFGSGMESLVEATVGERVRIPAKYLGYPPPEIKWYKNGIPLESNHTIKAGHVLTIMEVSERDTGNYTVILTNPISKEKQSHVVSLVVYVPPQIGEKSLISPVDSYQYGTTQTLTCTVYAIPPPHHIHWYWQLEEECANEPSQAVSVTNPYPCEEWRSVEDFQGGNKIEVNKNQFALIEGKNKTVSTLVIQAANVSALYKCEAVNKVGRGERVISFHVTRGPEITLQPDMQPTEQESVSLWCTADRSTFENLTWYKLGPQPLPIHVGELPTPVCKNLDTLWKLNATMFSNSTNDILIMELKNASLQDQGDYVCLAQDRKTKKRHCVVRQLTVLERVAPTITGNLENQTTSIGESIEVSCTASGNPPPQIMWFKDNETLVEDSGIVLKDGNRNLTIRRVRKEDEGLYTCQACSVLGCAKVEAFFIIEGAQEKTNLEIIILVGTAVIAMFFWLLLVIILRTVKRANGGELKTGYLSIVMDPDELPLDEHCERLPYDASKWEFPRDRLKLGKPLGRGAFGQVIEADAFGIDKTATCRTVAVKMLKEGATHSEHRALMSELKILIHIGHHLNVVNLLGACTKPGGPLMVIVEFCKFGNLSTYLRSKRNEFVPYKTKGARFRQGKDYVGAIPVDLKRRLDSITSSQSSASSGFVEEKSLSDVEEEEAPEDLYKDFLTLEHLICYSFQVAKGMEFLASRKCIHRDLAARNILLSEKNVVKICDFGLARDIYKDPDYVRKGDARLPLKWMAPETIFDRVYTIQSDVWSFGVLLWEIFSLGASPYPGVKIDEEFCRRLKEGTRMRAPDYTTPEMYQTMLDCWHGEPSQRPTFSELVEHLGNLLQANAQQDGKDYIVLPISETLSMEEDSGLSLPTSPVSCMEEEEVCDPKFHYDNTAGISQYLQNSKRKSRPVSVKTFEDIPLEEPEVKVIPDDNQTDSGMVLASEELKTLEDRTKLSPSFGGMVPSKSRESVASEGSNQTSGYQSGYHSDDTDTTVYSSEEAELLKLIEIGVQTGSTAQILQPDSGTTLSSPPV
Mast/stem cell growth factor receptor Kit, sequence (P10721 whole entry): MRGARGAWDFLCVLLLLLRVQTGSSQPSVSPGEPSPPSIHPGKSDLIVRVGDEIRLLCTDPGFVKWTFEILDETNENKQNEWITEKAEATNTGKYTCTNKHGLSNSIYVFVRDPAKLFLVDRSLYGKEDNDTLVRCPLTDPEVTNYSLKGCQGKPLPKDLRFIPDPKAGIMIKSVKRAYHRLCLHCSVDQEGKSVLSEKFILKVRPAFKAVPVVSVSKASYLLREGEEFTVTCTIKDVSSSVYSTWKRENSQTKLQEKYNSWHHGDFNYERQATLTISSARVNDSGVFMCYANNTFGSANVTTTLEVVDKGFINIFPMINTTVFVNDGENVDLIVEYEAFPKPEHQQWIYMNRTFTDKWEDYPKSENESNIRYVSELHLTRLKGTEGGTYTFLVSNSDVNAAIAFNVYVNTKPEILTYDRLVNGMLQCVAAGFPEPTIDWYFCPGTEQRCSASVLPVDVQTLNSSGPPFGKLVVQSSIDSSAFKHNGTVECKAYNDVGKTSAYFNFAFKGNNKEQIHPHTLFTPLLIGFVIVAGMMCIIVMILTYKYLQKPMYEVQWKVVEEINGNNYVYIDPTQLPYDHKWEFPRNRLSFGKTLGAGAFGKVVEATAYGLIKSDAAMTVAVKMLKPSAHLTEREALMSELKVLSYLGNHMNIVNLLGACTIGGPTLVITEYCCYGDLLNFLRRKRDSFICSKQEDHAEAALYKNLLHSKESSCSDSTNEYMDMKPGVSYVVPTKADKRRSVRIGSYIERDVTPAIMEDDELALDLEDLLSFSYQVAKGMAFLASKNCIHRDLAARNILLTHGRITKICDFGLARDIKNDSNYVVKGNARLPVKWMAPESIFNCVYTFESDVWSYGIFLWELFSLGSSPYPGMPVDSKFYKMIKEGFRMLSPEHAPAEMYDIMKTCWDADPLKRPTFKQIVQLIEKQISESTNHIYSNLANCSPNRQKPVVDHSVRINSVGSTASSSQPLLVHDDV
Serine/threonine-protein kinase B-raf, sequence (P15056 whole entry): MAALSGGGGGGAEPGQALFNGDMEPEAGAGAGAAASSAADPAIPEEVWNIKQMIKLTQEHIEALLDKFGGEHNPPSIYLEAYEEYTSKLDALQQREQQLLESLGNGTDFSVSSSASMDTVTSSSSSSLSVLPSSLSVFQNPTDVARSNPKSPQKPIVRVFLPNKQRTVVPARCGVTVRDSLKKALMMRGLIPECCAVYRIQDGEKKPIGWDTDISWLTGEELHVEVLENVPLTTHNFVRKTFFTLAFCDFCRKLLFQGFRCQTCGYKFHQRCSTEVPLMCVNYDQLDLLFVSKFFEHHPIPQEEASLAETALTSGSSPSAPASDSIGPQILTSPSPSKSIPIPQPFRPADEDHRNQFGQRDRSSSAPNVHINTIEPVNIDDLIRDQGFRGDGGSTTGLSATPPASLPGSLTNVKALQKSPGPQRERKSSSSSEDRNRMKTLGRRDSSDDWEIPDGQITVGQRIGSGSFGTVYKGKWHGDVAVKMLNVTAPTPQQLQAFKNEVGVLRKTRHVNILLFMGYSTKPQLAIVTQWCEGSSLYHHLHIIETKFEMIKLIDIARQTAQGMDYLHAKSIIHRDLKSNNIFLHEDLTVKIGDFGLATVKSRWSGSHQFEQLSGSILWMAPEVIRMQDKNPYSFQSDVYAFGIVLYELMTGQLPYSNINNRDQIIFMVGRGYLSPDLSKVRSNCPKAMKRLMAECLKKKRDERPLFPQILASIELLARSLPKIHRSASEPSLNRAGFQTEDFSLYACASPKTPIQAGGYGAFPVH

SMILES	IC50 [1]	IC50 [2]	further results
O=C(Nc1ccc2c(c1)OC(F)(F)O2)c1ccccc1NCc1ccnc(NCCc2cnc[nH]2)c1	0.146 µM	0.023 µM	–
NC(=O)c1cc(CNc2ccccc2C(=O)Nc2ccc3c(c2)OC(F)(F)O3)ccn1	0.034 µM	0.002 µM	–
O=C(NC1CC1)c1cc(CNc2ccccc2C(=O)Nc2ccc3c(c2)OC(F)(F)O3)ccn1	0.192 µM	0.016 µM	–
O=C(Nc1ccc2c(c1)OC(F)(F)O2)c1ccccc1NCc1ccnc(NCCO)c1	0.112 µM	0.008 µM	–
CS(=O)(=O)CCNC(=O)c1cc(CNc2ccccc2C(=O)Nc2ccc3c(c2)OC(F)(F)O3)ccn1	0.221 µM	0.017 µM	–
CCN(CC)CCNC(=O)c1cc(CNc2ccccc2C(=O)Nc2ccc3c(c2)OC(F)(F)O3)ccn1	0.138 µM	0.058 µM	–
COCCCNC(=O)c1cc(CNc2ccccc2C(=O)Nc2ccc3c(c2)OC(F)(F)O3)ccn1	1.03 µM	0.019 µM	–
CCNC(=O)c1cc(CNc2ccccc2C(=O)Nc2ccc3c(c2)OC(F)(F)O3)ccn1	0.333 µM	0.025 µM	–
O=C(NCc1ccccc1)Nc1cc(CNc2ccccc2C(=O)Nc2ccc3c(c2)OC(F)(F)O3)ccn1	0.232 µM	0.048 µM	–
O=C(Nc1ccccc1)Nc1cc(CNc2ccccc2C(=O)Nc2ccc3c(c2)OC(F)(F)O3)ccn1	0.039 µM	0.087 µM	–
O=C(Nc1ccc2c(c1)OC(F)(F)O2)c1ccccc1NCc1ccnc(NCCCO)c1	0.142 µM	0.009 µM	–
O=C(Nc1ccc2c(c1)OC(F)(F)O2)c1ccccc1NCc1ccnc(NCCCn2ccnc2)c1	0.101 µM	0.02 µM	–
CNC(=O)c1cc(CNc2ccsc2C(=O)Nc2ccc3c(c2)OC(F)(F)O3)ccn1	0.061 µM	0.003 µM	–
O=C(Nc1ccc2c(c1)CCC2)Nc1cc(CNc2ccccc2C(=O)Nc2ccc3c(c2)OC(F)(F)O3)ccn1	0.064 µM	0.24 µM	–
CNC(=O)c1cc(CNc2c(C(=O)Nc3ccc4c(c3)OC(F)(F)O4)cnn2C)ccn1	0.199 µM	0.011 µM	–
CS(=O)(=O)Nc1cc(CNc2ccccc2C(=O)Nc2ccc3c(c2)OC(F)(F)O3)ccn1	0.594 µM	0.025 µM	–
CC(=O)Nc1cc(CNc2ccccc2C(=O)Nc2ccc3c(c2)OC(F)(F)O3)ccn1	0.005 µM	0.001 µM	–
CNC(=O)c1cc(CNc2ncsc2C(=O)Nc2ccc3c(c2)OC(F)(F)C(F)(F)O3)ccn1	0.192 µM	0.012 µM	–
O=C(Nc1ccc2c(c1)OC(F)(F)O2)c1ccccc1NCc1ccnc(C2=NCCN2)c1	0.153 µM	0.072 µM	–
CNC(=O)Nc1ccc(CNc2c(C(=O)Nc3ccc(SC(F)(F)F)cc3)cnn2C)cn1	0.154 µM	0.017 µM	Cmax [9]: 3.6 µM; IC50 [3]: 0.062 µM; AUC(0-t) [6]: 11 µM·h
CNc1cc(CNc2ccccc2C(=O)Nc2ccc3c(c2)OC(F)(F)O3)ccn1	0.1 µM	0.003 µM	–
O=C(Nc1ccc2c(c1)OC(F)(F)C(F)(F)O2)c1ccccc1NCc1ccncc1	0.04 µM	0.019 µM	AUC [7]: 6 µM·h

The next lines start with results.

IC50 [1]	IC50 [2]	SMILES	further results
0.11 µM	0.037 µM	N#Cc1cc(CNc2ccccc2C(=O)Nc2ccc3c(c2)OC(F)(F)O3)ccn1	–
0.024 µM	0.005 µM	CNC(=O)Nc1cc(CNc2ccccc2C(=O)Nc2ccc3c(c2)OC(F)(F)O3)ccn1	–
–	0.005 µM	CNC(=O)Nc1ccc(CNc2ncsc2C(=O)Nc2ccc3c(c2)OC(F)(F)O3)cn1	IC50 [3]: 0.003 µM; inhibition in vivo at 50 mg/kg (NCI-H460): 70%; Cmax [4]: 124 µM; inhibition in vivo at 50 mg/kg (MDA-MB-231): 90%; Vd [5]: 0.151 L/kg; inhibition in vivo at 50 mg/kg (COLO 205): 84%; AUC(0-t) [6]: 538 µM·h
2.56 µM	0.095 µM	O=C(Nc1ccc2c(c1)OC(F)(F)C(F)(F)O2)c1ncsc1NCc1ccncc1	–
0.045 µM	0.005 µM	CNC(=O)c1cc(CNc2ccccc2C(=O)Nc2ccc3c(c2)OC(F)(F)O3)ccn1	AUC [7]: 40 µM·h
0.165 µM	0.004 µM	O=C(Nc1ccc2c(c1)OC(F)(F)O2)c1ccccc1NCc1ccnc(NCCOCCO)c1	–
6.83 µM	0.045 µM	O=C(NCCCN1CCOCC1)c1cc(CNc2ccccc2C(=O)Nc2ccc3c(c2)OC(F)(F)O3)ccn1	–
0.397 µM	0.018 µM	O=C(NCCO)c1cc(CNc2ccccc2C(=O)Nc2ccc3c(c2)OC(F)(F)O3)ccn1	–
0.175 µM	0.042 µM	CCN(CC)CCCNC(=O)c1cc(CNc2ccccc2C(=O)Nc2ccc3c(c2)OC(F)(F)O3)ccn1	–
0.156 µM	0.012 µM	COCCCNc1cc(CNc2ccccc2C(=O)Nc2ccc3c(c2)OC(F)(F)O3)ccn1	–
0.026 µM	0.003 µM	CNc1nccc(CNc2ccccc2C(=O)Nc2ccc3c(c2)OC(F)(F)O3)n1	–
0.497 µM	0.038 µM	COCCNC(=O)c1cc(CNc2ccccc2C(=O)Nc2ccc3c(c2)OC(F)(F)O3)ccn1	–
0.104 µM	0.013 µM	COCCNc1cc(CNc2ccccc2C(=O)Nc2ccc3c(c2)OC(F)(F)O3)ccn1	–
1.24 µM	0.025 µM	CNC(=O)c1cc(CNc2ncsc2C(=O)Nc2ccc3c(c2)OC(F)(F)O3)ccn1	–
0.09 µM	0.007 µM	CCNC(=O)Nc1cc(CNc2ccccc2C(=O)Nc2ccc3c(c2)OC(F)(F)O3)ccn1	AUC(0-t) at 4 h [8]: > 400 µM·h
0.634 µM and 0.274 µM	0.004 µM and 0.001 µM	Nc1cc(CNc2ccccc2C(=O)Nc2ccc3c(c2)OC(F)(F)O3)ccn1	–
0.349 µM	0.05 µM	CN(C)c1nccc(CNc2ccccc2C(=O)Nc2ccc3c(c2)OC(F)(F)O3)n1	–
–	0.012 µM	CNC(=O)Nc1ccc(CNc2c(C(=O)Nc3ccc4c(c3)OC(F)(F)C(F)(F)O4)cnn2C)cn1	Cmax [9]: 6 µM; IC50 [3]: 0.043 µM; AUC(0-t) [6]: 19 µM·h
0.1 µM	0.027 µM	NC(=S)c1cc(CNc2ccccc2C(=O)Nc2ccc3c(c2)OC(F)(F)O3)ccn1	–
–	0.004 µM	CCNC(=O)Nc1ccc(CNc2ncsc2C(=O)Nc2ccc3c(c2)OC(F)(F)O3)cn1	IC50 [3]: 0.007 µM; inhibition in vivo at 50 mg/kg (NCI-H460): 79%; Cmax [4]: 64 µM; inhibition in vivo at 50 mg/kg (MDA-MB-231): 92%; Vd [5]: 0.24 L/kg; inhibition in vivo at 50 mg/kg (COLO 205): 86%; AUC(0-t) [6]: 255 µM·h
